Results from patent US6610714B2, “Non-nucleoside reverse transcriptase inhibitors” (Medivir AB, priority 2001, dated 2003).

test system: HIV-1IIIB (wild type); test: XTT assay in MT-4 cells infected with wild type HIV-1IIIB; format: cell-based; conditions: Human immunodeficiency virus 1, MT4, read-out: ED50
Procedure: Compounds of the invention are assayed for HIV activity, for example using multiple determinations with XTT in MT-4 cells (Weislow et al, J Nat Cancer Inst 1989, vol 81 no 8, 577 et seq), preferably including determinations in the presence of 40-50% human serum to indicate the contribution of protein binding. In short the XTT assay uses human T cell line MT4 cells grown in RPMI 1640 medium supplemented with 10% fetal calf serum (or 40-50% human serum as appropriate), penicillin and streptomycin seeded into 96 well microplates (2·10^4 cells/well) infected with 10-20 TCID50 per well of HIV-1IIIB (wild type) or mutant virus, such as those bearing RT IIe 100, Cys 181 or Asn 103 mutations. Serially diluted test compounds are added to respective wells and the culture incubated at 37° C. in a CO2 enriched atmosphere and the viability of cells is determined at day five or six with XTT vital dye. Results are typically presented as ED50 μM.

Point of comparison: N#Cc1ccc(NC(=O)N[C@@H]2[C@@H]3Cc4c(F)ccc(F)c4[C@@H]32)nc1 (racemic) [Example 20, (±)-cis-1-(5-cyano-2-pyridinyl)-3-(2,5-difluoro-1,1a,6,6a-tetrahydro-cyclopropa[a]inden-1-yl)-urea], EC50 14 nM. Against it:
- N#Cc1ccc(NC(=O)N[C@@H]2[C@@H]3Cc4cc(Br)ccc4[C@@H]32)nc1 (racemic) [Example 17, (±)-cis-1-(5-cyano-2-pyridinyl)-3-(4-bromo-1,1a,6,6a-tetrahydro-cyclopropa[a]inden-1-yl)-urea] — 3-fold higher, 42 nM
- C#Cc1ccc2c(c1)CC[C@H]1[C@@H](NC(=O)Nc3ccc(C#N)cn3)[C@@H]21 [Example 8, +/−cis-N-(5-cyano-2-pyridinyl)-N-(5-ethynyl-1a,2,3,7b-tetrahydro-1H-cyclopropa[a]naphthalen-1-yl)urea] — 2.3-fold higher, 32 nM
- O=C(Nc1ccc(Cl)cn1)N[C@@H]1[C@@H]2Cc3c(F)ccc(F)c3[C@@H]21 (racemic) [Example 19, (±)-cis-1-(5-chloro-2-pyridinyl)-3-(2,5-difluoro-1,1a,6,6a-tetrahydro-cyclopropa[a]inden-1-yl)-urea] — within 1.5-fold, 10 nM
- COc1ccc2c(c1)CC[C@H]1[C@@H](NC(=O)Nc3ccc(C#N)cn3)[C@@H]21 [Example 5, +/−cis-N-(5-cyano-2-pyridinyl)-N-(5-methoxy-1a,2,3,7b-tetrahydro-1H-cyclopropa[a]naphthalen-1-yl)urea] — 1.6-fold lower, 9 nM
- COc1ccc2c(c1)[C@H]1[C@@H](CC2)[C@H]1NC(=O)Nc1ccc(C#N)cn1 [Example 6, +/−cis-N-(5-cyano-2-pyridinyl)-N-(6-methoxy-1a,2,3,7b-tetrahydro-1H cyclopropa[a]naphthalen-1-yl)urea] — 2.6-fold higher, 36 nM
- C#Cc1ccc2c(c1)CC[C@H]1[C@@H](NC(=O)Nc3ccc(Br)cn3)[C@@H]21 [Example 9, +/−cis-N-(5-bromo-2-pyridinyl)-N-(5-ethynyl-1a,2,3,7b-tetrahydro-1H-cyclopropa[a]naphthalen-1-yl)urea] — 3.1-fold higher, 44 nM
